# Calls of active or inactive are those of the source. The rule behind the calls is not given here.
# Experiments:
# [1] = target: T1, Kinesin-like protein KIF15 (Homo sapiens) (UniProt Q9NS87); test: Inhibition of recombinant His6-tagged Kif15 ATPase activity (N420 residues) (unknown origin) expressed in HeLa cells at 10 uM using microtubule as substrate preincubated for 15 mins followed by ATP addition and measured after 20 mins by ADP-Glo luminescence assay relative to control
# T1 sequence (whole entry): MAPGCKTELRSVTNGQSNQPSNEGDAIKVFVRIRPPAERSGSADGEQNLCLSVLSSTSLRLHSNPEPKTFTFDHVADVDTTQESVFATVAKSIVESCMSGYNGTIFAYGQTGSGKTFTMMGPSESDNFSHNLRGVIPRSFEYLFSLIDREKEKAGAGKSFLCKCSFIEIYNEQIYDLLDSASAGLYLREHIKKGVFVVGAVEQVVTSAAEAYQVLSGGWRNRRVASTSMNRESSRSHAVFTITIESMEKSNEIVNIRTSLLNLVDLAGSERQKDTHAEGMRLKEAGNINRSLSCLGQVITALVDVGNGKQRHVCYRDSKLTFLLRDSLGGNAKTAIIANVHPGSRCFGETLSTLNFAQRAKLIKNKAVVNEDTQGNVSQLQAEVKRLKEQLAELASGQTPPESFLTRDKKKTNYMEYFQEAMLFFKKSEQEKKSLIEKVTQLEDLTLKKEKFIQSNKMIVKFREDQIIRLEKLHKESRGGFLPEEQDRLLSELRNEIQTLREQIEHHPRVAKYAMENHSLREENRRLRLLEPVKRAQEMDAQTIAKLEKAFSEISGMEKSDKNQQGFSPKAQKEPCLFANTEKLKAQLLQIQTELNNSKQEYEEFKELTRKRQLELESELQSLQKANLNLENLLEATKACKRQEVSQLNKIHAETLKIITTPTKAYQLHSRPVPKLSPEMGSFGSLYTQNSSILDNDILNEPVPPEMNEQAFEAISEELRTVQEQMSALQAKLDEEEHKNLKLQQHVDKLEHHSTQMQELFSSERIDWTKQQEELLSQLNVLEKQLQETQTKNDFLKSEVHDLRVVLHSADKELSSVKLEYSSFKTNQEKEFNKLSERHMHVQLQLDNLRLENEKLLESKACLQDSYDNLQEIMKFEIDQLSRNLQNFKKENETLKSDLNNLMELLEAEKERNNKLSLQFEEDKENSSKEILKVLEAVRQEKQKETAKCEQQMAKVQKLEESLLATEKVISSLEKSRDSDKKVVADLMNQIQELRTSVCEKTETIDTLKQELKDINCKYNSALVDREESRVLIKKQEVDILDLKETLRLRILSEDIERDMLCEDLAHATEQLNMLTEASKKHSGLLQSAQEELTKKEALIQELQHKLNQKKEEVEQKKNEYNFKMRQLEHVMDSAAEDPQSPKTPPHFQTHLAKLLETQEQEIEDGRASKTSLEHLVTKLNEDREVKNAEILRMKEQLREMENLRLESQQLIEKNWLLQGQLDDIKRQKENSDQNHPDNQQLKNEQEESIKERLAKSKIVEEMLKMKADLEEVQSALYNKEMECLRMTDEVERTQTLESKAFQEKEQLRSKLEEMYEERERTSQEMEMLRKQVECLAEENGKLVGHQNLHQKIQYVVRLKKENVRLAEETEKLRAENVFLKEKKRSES
# [2] = target: T2, Kinesin-like protein KIF15 (Homo sapiens, UniProt Q9NS87); test: Inhibition of recombinant His6-tagged Kif15 ATPase activity (N420 residues) (unknown origin) expressed in HeLa cells using microtubule as substrate preincubated for 15 mins followed by ATP addition and measured after 20 mins by ADP-Glo luminescence assay
# T2 sequence (Q9NS87 whole entry): T1 sequence (whole entry)
# [3] = target: T1, Kinesin-like protein KIF15 (Homo sapiens); test: Reversible inhibition of recombinant His6-tagged Kif15 (N700 residues) (unknown origin) expressed in HeLa cells assessed as reduction in Alexa-594 labelled microtubule gliding at 10 uM treated for 1 min followed by compound washout and measured every 2 secs for 1 min by epifluorescence microscopic analysis; format: cell-based
# [4] = target: T3, Kinesin-like protein KIF18A (Homo sapiens) (UniProt Q8NI77); test: Inhibition of Kif18A (unknown origin) assessed as reduction in Alexa-594 labelled microtubule gliding at 30 uM measured every 2 secs for 20 secs by epifluorescence microscopic analysis relative to control
# T3 sequence (whole entry): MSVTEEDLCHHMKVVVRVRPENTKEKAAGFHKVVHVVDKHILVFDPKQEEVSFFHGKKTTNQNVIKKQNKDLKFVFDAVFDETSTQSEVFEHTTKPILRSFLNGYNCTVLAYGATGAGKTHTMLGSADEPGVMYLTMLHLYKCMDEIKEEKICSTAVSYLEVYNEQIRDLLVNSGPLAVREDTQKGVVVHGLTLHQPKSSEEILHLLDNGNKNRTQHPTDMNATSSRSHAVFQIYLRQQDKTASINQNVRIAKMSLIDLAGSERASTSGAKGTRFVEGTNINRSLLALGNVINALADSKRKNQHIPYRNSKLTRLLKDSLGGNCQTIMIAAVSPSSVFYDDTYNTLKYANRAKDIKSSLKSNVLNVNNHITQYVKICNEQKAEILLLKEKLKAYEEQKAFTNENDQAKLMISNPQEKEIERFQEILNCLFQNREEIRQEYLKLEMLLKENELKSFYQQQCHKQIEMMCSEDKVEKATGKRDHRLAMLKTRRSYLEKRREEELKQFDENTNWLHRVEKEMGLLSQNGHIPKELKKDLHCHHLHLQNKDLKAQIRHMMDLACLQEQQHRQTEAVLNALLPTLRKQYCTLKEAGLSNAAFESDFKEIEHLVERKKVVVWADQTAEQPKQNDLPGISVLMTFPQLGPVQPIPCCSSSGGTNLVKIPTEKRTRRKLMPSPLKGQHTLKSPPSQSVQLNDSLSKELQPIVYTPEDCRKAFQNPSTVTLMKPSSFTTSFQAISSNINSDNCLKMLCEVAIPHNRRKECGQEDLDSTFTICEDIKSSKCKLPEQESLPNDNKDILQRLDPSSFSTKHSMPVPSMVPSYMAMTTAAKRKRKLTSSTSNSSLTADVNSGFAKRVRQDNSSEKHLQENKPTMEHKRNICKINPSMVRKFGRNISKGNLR
# [5] = target: T4, Aurora kinase A (Homo sapiens) (UniProt O14965); test: Inhibition of AURKA (unknown origin) at 1 uM relative to control
# T4 sequence (whole entry): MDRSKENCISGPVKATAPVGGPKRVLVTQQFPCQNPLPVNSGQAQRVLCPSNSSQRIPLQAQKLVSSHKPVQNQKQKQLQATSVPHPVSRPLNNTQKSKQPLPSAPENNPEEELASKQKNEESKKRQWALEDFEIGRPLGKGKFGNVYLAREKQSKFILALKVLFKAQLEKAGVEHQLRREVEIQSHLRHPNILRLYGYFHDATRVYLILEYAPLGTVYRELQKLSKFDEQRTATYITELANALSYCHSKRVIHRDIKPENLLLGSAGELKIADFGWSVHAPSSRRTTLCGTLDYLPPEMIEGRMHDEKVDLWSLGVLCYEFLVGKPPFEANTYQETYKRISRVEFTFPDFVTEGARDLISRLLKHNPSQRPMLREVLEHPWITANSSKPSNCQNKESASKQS
smiles,measurement,setting,value
O=C1Nc2ccc(C(=O)c3ccco3)cc2/C1=C/c1cc(Cl)c(O)c(Cl)c1,inhibition,[1],76%
same,IC50,[2],820 nM
same,inhibition,[3],Active
same,inhibition,[4],4.9%
same,inhibition,[5],67%

# From ChEMBL document CHEMBL4371054, “Dual inhibition of Kif15 by oxindole and quinazolinedione chemical probes” (Bioorg Med Chem Lett, 2019)
